In article PMC11362529, “Exploring the neuroprotective potential of Nrf2-pathway activators against annonacin toxicity” (Scientific Reports, 2024):

Assays:
Format in all cases: cell-based, human
LUHMES cells = assay: Intracellular ATP levels (ViaLight plus kit); settings: for intracellular ATP levels: protective concentration of compound + 20 nM annonacin, 24 h
Procedure: Mitochondrial activity was estimated by the reduction of MTT (3-(4,5-dimethylthiazol-2-yl)-2,5-diphenyltetrazolium, Sigma-Aldrich). Briefly, LUHMES cells were seeded on PLO/FN-coated 48-well microplates, in triplicates. After a 24 h treatment with 20 nM of annonacin and the protective concentrations of Nrf2-pathway activators in glucose-reduced medium, cells were incubated with 0.5 mg/ml of MTT dissolved in PBS, at 37 °C for 30 min. After that, the medium was removed and the plate was frozen at -80 °C for 1 h, for cell lysing. Next, the plate was thawed and the MTT crystals were completely dissolved in 250 µl of DMSO with vigorous shaking. The absorbance was measured on a FLUOstar® Omega plate reader at λ = 590 nm, using λ = 630 nm absorbance as a background correction. The obtained results were analyzed with the MARS data analysis software (BMG LabTech). After background subtraction, the data were expressed as a percentage of MTT reduction relative to the control (DMSO-treated) condition. Determination of cellular ATP levels was done by using the ViaLight™ plus kit (Lonza, Basel, Switzerland), following the manufacturer’s instructions. Cells were seeded on PLO/FN-coated 48-well microplates and the pharmacological treatments were done similarly as to the assessment of the MTT reduction. On the next day, the medium was removed and cells were washed once with warm HBSS and rested in 210 µl HBSS. The plate was left to reach RT before adding 70 µl cell lysis reagent to each well, provided by the kit. After a 10 min incubation, 10 µl of each lysed cell extract was transferred to a 384-well white plate and combined with 10 µl of ATP monitoring reagent plus. The plate was incubated in the dark for 10 min at RT before the luminescence signal was measured on a FLUOstar® Omega plate reader. The obtained results were analyzed with the MARS data analysis software (BMG LabTech) and expressed as RLUs. For background correction, the RLUs detected for the background control (i.e., 10 µl of ATP monitoring reagent plus combined with 10 µl of cell lysis reagent) were subtracted from the measured RLUs values of all testing conditions.

total tau transcripts = assay: Total tau mRNA by RT-qPCR; settings: 20 nM annonacin alone, 48 h, vs control
Procedure: (§1) LUHMES cells were seeded on PLO/FN coated 6-well microplates and the pharmacological treatments were performed as previously explained. The cells were washed in HBSS, prior to being collected for mRNA isolation (RNeasy® Plus Mini Kit, Qiagen, Venlo, Netherlands), following the manufacturer’s instructions. The mRNA concentrations were determined on a Nano-Drop 2000c (Thermo Fisher Scientific) and 1 µg of mRNA was reverse-transcribed into cDNA with the iScript™ Reverse Transcription Supermix for RT-qPCR Kit (Bio-Rad) on a thermal cycler (SensoQuest, Göttingen, Germany). Real-time PCR was performed using SYBR™ Select Master Mix for CFX (Thermo Fisher Scientific) with 30 ng cDNA and 0.4 µM of primers against the respective target genes (Supplementary Table S3), in a 20 µl total volume, on a CFX96 Touch™ Real-Time Cycler (Bio-Rad). The relative expression of mRNA was calculated using the CFX Manager software (ΔΔCt method) from Bio-Rad, and the Ct values of the target-genes were normalized to the reference genes RPL22 and UBQLN1. The data were reported as fold change relative to the control (DMSO-treated) condition.

4R-tau transcripts = assay: 4R-tau mRNA and 4R-/3R-tau ratio by RT-qPCR; settings: 48 h
Procedure: as §1

SRSF2/SC-35 = assay: pSC-35 speckle immunofluorescence; settings: 48 h
Procedure: For immunostaining, cells were seeded in differentiation medium, on 24-well microplates containing PLO/FN-coated 13 mm Ø coverslips, and treated for 48 h as previously described. On the readout day, the medium was removed and cells were fixed, permeabilized and blocked as before. Primary antibody dilutions were made in 1.5% NHS in PBS (Supplementary Table S1) and incubated overnight at 4 °C. On the following day, the coverslips were washed three times with PBS and incubated with host-specific fluorescence secondary antibodies (Supplementary Table S1), for 2 h at RT, protected from light. After another three washes with PBS, cell nuclei were stained with 1:5,000 DAPI (4’,6-diamidino-2-phenylindole, Thermo Fisher Scientific) in PBS, for 15 min at RT. The coverslips were mounted in mowiol and left to dry for 24 h before imaging. Image acquisition for FI quantification was done with a 200 × magnification (20 × objective, 10 × intermediate magnification), or 400x (40 × objective, 10 × intermediate magnification) in the case of pSC-35 and AT8 immunostaining, on a fluorescence microscope Leica-DFC9000GTC (Leica). In the case of phospho-tau AT8, Z-stacks consisting of 18 plane images with a step size of 1 μm were acquired. The image acquisition parameters were identical for all conditions. Quantification of 8-OHdG (8-hydroxyguanosine) FI and tau species was performed using the ImageJ software. Ten-to-fifteen images per condition across triplicates, from different view fields, were used for this purpose. Briefly, TIFF exported images were submitted to background subtraction using the rolling ball method with a radius of 50 pixels. For 8-OHdG analysis, a channel-specific threshold was applied to all images to define the ROI and FI was measured and normalized to the cell number, determined by the DAPI channel. The average value of the different view fields per experimental condition was taken and reported as fold change compared to the control (DMSO-treated) condition. For the analysis of phospho-tau AT270 and pan-tau reactivity, channel specific thresholds were applied to all images. The DAPI channel was used to define nuclei from viable cells, by selecting particles with a size above 15 µm^2 and a circularity of 0.3–1.0. […] These masks were used to quantify the number of somas expressing each of these tau species, as well as the respective FI. The number of AT270-positive somas was divided by the number of pan-tau-positive somas and expressed as a percentage. […] For quantification of pSC-35 and AT8 speckle number and FI, we used CellProfiler™ 4 (https://cellprofiler.org/, Broad Institute Inc., Cambridge, MA, USA) speckle counting pipeline. […]

[1] = 15 μM ezetimibe + 20 nM annonacin

Cn1c(Nc2nc3ccc(C(F)(F)F)cc3s2)nc2cc(C(=O)NCCOCCO)ccc21 [HPP-D]
intracellular ATP levels (LUHMES cells): intracellular ATP levels no longer statistically different from healthy control cells

CCCCCCCCCCCC[C@@H](O)[C@H]1CC[C@H]([C@H](O)CCCC[C@H](O)CCCCC[C@@H](O)CC2=CC(C)OC2=O)O1 (stereo partly shown) [annonacin]
total tau transcripts (total tau transcripts): significantly downregulated | 4R-/3R-tau isoforms ratio (4R-tau transcripts; 20 nM annonacin alone): 3.5 fold over control | upregulation of 4R-tau transcripts over control cells (4R-tau transcripts; 20 nM annonacin alone): twofold | number of pSC-35 speckles per nucleus (SRSF2/SC-35; 20 nM annonacin alone): no changes in the number of pSC-35 speckles per nucleus | pSC-35 fluorescence intensity (SRSF2/SC-35; 20 nM annonacin alone): no changes | ATP production (LUHMES cells; annonacin alone): impaired ATP production

O=C1[C@H](CC[C@H](O)c2ccc(F)cc2)[C@@H](c2ccc(O)cc2)N1c1ccc(F)cc1 [ezetimibe]
4R-/3R-tau isoforms ratio (4R-tau transcripts; [1]): remained similar to healthy control cells | 4R-tau transcripts (4R-tau transcripts; [1]): prevented the annonacin-induced upregulation of 4R-tau transcripts | number of pSC-35 speckles per nucleus (SRSF2/SC-35; [1]): non-significant reduction of the number of speckles per nucleus | pSC-35 fluorescence intensity per nucleus (SRSF2/SC-35; 15 μM ezetimibe + 20 nM annonacin, vs control): twofold | intracellular ATP levels (LUHMES cells): lower intracellular ATP levels

C=CC(C)(C)c1cc(/C=C/C(=O)c2ccc(O)cc2)c(OC)cc1O [licochalcone A]
intracellular ATP levels (LUHMES cells): lower intracellular ATP levels
